Experimental data taken from patent US11541105B2, “Compositions and methods for disrupting biofilm formation and maintenance” (The Research Foundation for the State University of new York, priority 2018, dated 2023).

Key:
[1] = test system: P. aeruginosa biofilms; experiment: Biofilm dispersion in 24-well plates, crystal violet staining of remaining biofilm biomass; format: cell-based, Pseudomonas aeruginosa; conditions: controls: heat-inactivated PDH increasing concentrations; cofactors; acetyl-CoA 0.2 mM; NADH 2 mM; lactate 10 mM
Experimental: P. aeruginosa biofilms grown for 4 days in 24-well plates were exposed to pyruvate-depleting conditions. This was accomplished by exposing biofilms to increasing concentration of the enzyme pyruvate dehydrogenase (PDH) having a specific activity of 0.57 U/mg. PDH catalyzes the conversion of pyruvate to acetyl-CoA in the presence of CoA and NAD^+. Specifically, biofilms were exposed to 5, 10, and 20 mU (8.7, 17.4, and 32.8 mg enzyme) of PDH in the presence of NAD^+ and CoA. Biofilms grown in LB but left untreated were used as controls. Following overnight incubation, the remaining biofilm was stained using crystal violet.
Biofilms were grown in a 24-well plate system modified from the procedure described by Caiazza and O'Toole (2004) to elucidate the role of pyruvate in biofilm formation and biofilm dispersion.
Overnight cultures grown in LB medium were adjusted to an OD600 of 0.05 in fresh 5-fold diluted LB VBMM and grown at 37° C. and rotated at 220 r.p.m. in 24-well microtiter plates at a 45° angle, ensuring that the bottom of the wells is at the air-liquid interface, with the medium exchanged every 12 h.
For biofilm dispersion, biofilms were first grown for 4 days after which time the growth medium was supplemented with 10 mU porcine pyruvate dehydrogenase, cofactors (1 mM b-NAD, 1 mM sodium Co-A, 20 μM TPP) and allowed to incubate for an additional 16 h.

[2] = test system: P. aeruginosa biofilms; experiment: Biofilm susceptibility assay, viability count; format: cell-based, Pseudomonas aeruginosa; conditions: 4-day biofilms, tobramycin 100 μg/ml, PDH 10 mU where present, overnight
Experimental: It is well established that planktonic cells are more susceptible to antimicrobial agents than their counterparts growing as a biofilm, and that dispersion coincides with bacteria transitioning to the planktonic mode of growth. […] P. aeruginosa biofilms grown for 4 days in 24-well plates were exposed to 100 μg/ml tobramycin in the absence of presence of PDH. Following overnight incubation, the number of viable biofilm cells were determined using viability count. […] Tobramycin in the presence of 10 mU PDH coincided with a reduction in the biofilm biomass to 3.5×10^3 cells/biofilm (FIG. 12A), with the reduction in the viable cells being equivalent to an overall 5.9-log reduction in the biofilm biomass relative to untreated biofilms. […] For susceptibility assays, biofilms were grown as for dispersion assays, but following 4 days of growth, the growth medium was supplemented the aminoglycoside antibiotic tobramycin (100 μg/ml), 10 mU porcine pyruvate dehydrogenase, and cofactors (1 mM b-NAD, 1 mM sodium Co-A, 20 μM TPP). Untreated biofilms or biofilms only exposed to cofactors alone were used as controls. Differences in the biofilm architecture were visualized by crystal violet staining or microscopy (brightfield, confocal laser scanning). Differences in drug susceptibility were evaluated by viability count.

[3] = test system: P. aeruginosa ATCC 27312; experiment: Porcine burn wound biofilm infection model; format: in vivo, Pseudomonas aeruginosa
Experimental: The well-known clinical burn wound isolate P. aeruginosa ATCC 27312 was employed.
Burn wounds were inoculated with 25 μl of a standardized P. aeruginosa suspension harboring 10^6 CFU/ml and allowed to establish biofilms for 24 h. Infected wounds were subsequently treated daily with 100 and 200 mU PDH in the absence of presence of 100 μg/ml tobramycin. Untreated wounds and wounds only exposed to carrier solution were used as controls. Following 3 and 6 days of treatment, bacterial cells present in wounds were harvested using a flush and scrub technique that separates biofilm bacteria from planktonic bacteria, by flushing the non-adherent (planktonic) bacteria off the wound, followed by scrubbing of the wound to remove adherent biofilm-associated bacteria from the wound bed.
Second degree porcine burn wounds were infected with P. aeruginosa ATCC® 27312™. […] Then, bacterial cells were removed from the wounds and the number of viable cells, as shown in (CFU) per wound determined using viability counts. […] Experiments are representative data obtained using 3 wounds per treatment group (n=3). Error bars represent standard deviation.

[4] = test system: P. aeruginosa biofilms; experiment: Microscopy (confocal, brightfield) of biofilm architecture and microcolony void formation; format: cell-based, Pseudomonas aeruginosa; conditions: 4-day biofilms, PDH 10 mU plus 500 uM SNP as NO source, 16 h
From the text: To determine how exposure to PDH accomplished a reduction in the biofilm biomass, the remaining biofilm architecture was visually analyzed by confocal microscopy. Relative to untreated biofilms, biofilms exposed to PDH were not only characterized by an overall reduced biofilm biomass but by microcolonies having central voids (FIGS. 2E3 and 2F2). Void formation has previously linked with biofilm dispersion, a process in which sessile, surface-attached organisms liberate themselves from the biofilm to return to the planktonic state. […] In contrast, the vast majority of microcolonies by untreated biofilms were intact (FIG. 2E1), with only less than 8% of the microcolonies featuring central void formation (FIG. 2G). […]
Differences in the biofilm architecture were visualized by crystal violet staining or microscopy (brightfield, confocal laser scanning). Differences in drug susceptibility were evaluated by viability count.
FIGS. 15A-15F show the effect of PDH nanoparticles (NP) on biofilms. […] Biofilm biomass was quantitatively determined by confocal microscopy and COMSTAT analysis prior/post 24 h PDH treatment. […]
Biofilms were grown for 4 days in 24-well polystyrene plates in five-fold diluted LB. […] Number of microcolonies as percent of the total colonies counted per treatment group is shown. […]

## NC(=O)c1ccc[n+]([C@@H]2O[C@H](COP(=O)([O-])OP(=O)(O)OC[C@H]3O[C@@H](n4cnc5c(N)ncnc54)[C@H](O)[C@@H]3O)[C@@H](O)[C@H]2O)c1 [NAD+]
[1]
  effect on biofilm biomass relative to untreated biofilms: no effect

## CC(O)C(=O)O (stereo not drawn) [lactate]
[1]
  effect on biofilm biomass relative to untreated biofilms: no difference

## NC[C@H]1O[C@H](O[C@H]2[C@H](O)[C@@H](O[C@H]3O[C@H](CO)[C@@H](O)[C@H](N)[C@H]3O)[C@H](N)C[C@@H]2N)[C@H](N)C[C@@H]1O [tobramycin]
[2]
  log reduction of the biofilm biomass (viable cells) relative to untreated: 2.5 log
[2]; untreated 2.4×10^8
  number of viable cells remaining: 1.2×10^5 cells per biofilm
[3]; as stated in the summary, tobramycin with or without pyruvate-depleting conditions
  log reduction of P. aeruginosa biofilms present in porcine burn wounds: 2.5 log
[3]; tobramycin 100 μg/ml daily
  log reduction in viable biofilm cells (scrub) relative to untreated: 2 log

## CC(=O)SCCNC(=O)CCNC(=O)[C@H](O)C(C)(C)COP(=O)(O)OP(=O)(O)OC[C@H]1O[C@@H](n2cnc3c(N)ncnc32)[C@H](O)[C@@H]1OP(=O)(O)O [acetyl-CoA]
[1]
  effect on biofilm biomass relative to untreated biofilms: did not result in increased biofilm biomass accumulation

## NC(=O)C1=CN([C@@H]2O[C@H](COP(=O)(O)OP(=O)(O)OC[C@H]3O[C@@H](n4cnc5c(N)ncnc54)[C@H](O)[C@@H]3O)[C@@H](O)[C@H]2O)C=CC1 [NADH]
[1]
  effect on biofilm biomass relative to untreated biofilms: did not result in increased biofilm biomass accumulation

## [N]=O [nitric oxide]
[4]
  effect on PDH-induced dispersion of biofilms (microcolonies with void formation): can enhance
